# Source: US20190204402A1, “METHOD FOR POST-PROCESSING MRI IMAGES TO OBTAIN HEPATIC PERFUSION AND TRANSPORT PARAMETERS” (INSERM (INSTITUT NATIONAL DE LA SANTE DE LA RECHERCHE …, priority 2016, published 2019)
# “And” between values parts separate entries of the source, which are not always exact repeats. Equal entries are not always repeated.
# System: liver of patients with chronic liver diseases
# Assay: Dynamic gadoxetate-enhanced MR imaging with dual-input three-compartment pharmacokinetic model, patients with chronic liver diseases
# Assay type: in vivo, human
# Experimental: The feasibility of the method was evaluated in a prospective study with liver biopsy as a gold standard on patients with liver chronic liver diseases. The institutional ethics committee approved the protocol and informed consent was obtained from each subject. Twenty-one consecutive patients (4 women, 17 men; mean age, 51.0±10.2 years) who were suspected of having chronic liver disease on clinical and biological data underwent in the same period liver biopsy and MR imaging. Mean delay between MR imaging and liver biopsy was 2.5 days (range: 0-20 days). All subjects were fasting during six hours before MR imaging. Exclusion criteria were the usual contra-indications for MR imaging.
# Percutaneous liver biopsy was performed with a 1.4-mm-diameter needle (Hepafix; Braun, Melsungen, Germany). In 6 patients with ascites and/or trouble of blood crasis, liver biopsy was performed through a transjugular approach using a catheter needle with a diameter of 1.1 mm (Cook Bloomington, Ind., USA). The liver samples were fixed in buffered formalin and embedded in paraffin. Sections, 4 μm thick, were stained with hematoxylin-eosin and Masson trichrome and assessed by a pathologist blinded to the clinical data and to the results of MR imaging. The stage of fibrosis from F0 to F4 was evaluated semiquantitatively on Masson trichrome-stained slides according to the METAVIR staging system. For further analysis of fibrosis severity, a three-level staging of fibrosis was used (F0-F1: minimal fibrosis, F2-F3: intermediate fibrosis, and F4: cirrhosis). Moreover, patients with F≥2 were considered having significant fibrosis.
# MR imaging was performed on a Siemens Skyra 3.0 T system (Siemens Medical Solutions, Erlangen, Germany). […] The signal was collected with the 32-channel phased array body and the spine coils.
# Gadoxetate (Primovist, Bayer, Berlin, Germany) was injected intravenously using an automatic injector (Medrad Spectris Solaris, Warrendale, PA) with an injection rate of 1 mL·s^-1 and flushed with physiologic saline (same volume and injection rate). The gadoxetate dose was 0.025 mmol·kg^-1.
# Dynamic liver imaging was started simultaneously with the intravenous injection of gadoxetate and was performed in free breathing.
# To do this, pauses were added between dynamics as follow: for the 280 first dynamics: no pause, the effective temporal resolution was 2.1 s; for the next 150 dynamics: 5 s pause, the effective temporal resolution was 7.1 s, for the 60 last dynamics; 8 s pause, the effective temporal resolution was 10.1 s. Dynamic acquisition duration was close to 38 minutes.
# To simultaneously quantify hepatic micro-perfusion and function transport parameters, a model was developed. In the liver, the quantity of gadoxetate Q between τ and τ+dτ can be expressed as the difference between incoming Qin and outgoing gadoxetate quantities Qout. This means that:
# To express R(t) with kinetic indices kij, the liver is modeled with a model according to which the liver is a dual input three compartments. The three compartments are the extracellular compartment, the hepatocyte compartment and the intrahepatic bile ducts. The extracellular compartment comprises the intravascular compartment and the Disse space's.
# From the motion corrected dynamic frames, arterial and portal input were recorded with freehand regions of interest (ROI) drawn in the abdominal aorta and the portal vein respectively. Tissue response was measured from a ROI placed in the right hepatic lobe anterior segment (segments V-VIII) and the right lobe posterior segment (segments VI-VII), two large ROIs covering an extended region without visible large vessels were drawn on three central slices. For inputs function and tissue response, signal intensity was converted into relative gadoxetate concentration as follows:
# To convert blood concentration into plasma concentration, the input functions were normalized by one minus hematocrit. A hematocrit of 45% was assumed in this study. […]
# [1] = intermediate fibrosis (F2-F3), n = 8
# [2] = minimal fibrosis (F0-F1), n = 9
smiles,measurement,setting,value
CCOc1ccc(C[C@@H](CN(CCN(CC(=O)[O-])CC(=O)[O-])CC(=O)[O-])N(CC(=O)[O-])CC(=O)[O-])cc1.[Gd+3].[H+].[H+] [gadoxetate],Biliary efflux,"cirrhosis (F4), n = 4",0.31±0.57 mL · min^−1 · 100 g^−1
same,E (hepatocyte uptake fraction),"cirrhosis (F4), n = 4",3.4±2.5%
same,MTT (extracellular mean transit time),"cirrhosis (F4), n = 4",30.1 ± 12.5 s and 29.7 ± 9.7 s
same,Sinusoidal backflux,"cirrhosis (F4), n = 4",0.0012±0.002 mL · min^−1 · 100 g^−1
same,Ve (extracellular volume),"cirrhosis (F4), n = 4",30.1 ± 12.5%
same,Biliary efflux,[1],1.5±0.5 mL · min^−1 · 100 g^−1
same,E (hepatocyte uptake fraction),[1],8.7±3.1%
same,MTT (extracellular mean transit time),[1],14.1 ± 3.9 s
same,Sinusoidal backflux,[1],0.021 ± 0.013 mL · min^−1 · 100 g^−1
same,Ve (extracellular volume),[1],21.8 ± 6.5%
same,Biliary efflux,[2],3.2±1.0 mL · min^−1 · 100 g^−1
same,E (hepatocyte uptake fraction),[2],12.0±3.8%
same,MTT (extracellular mean transit time),[2],15.0 ± 5.0 s
same,Sinusoidal backflux,[2],0.035±0.012 mL · min^−1 · 100 g^−1
same,Ve (extracellular volume),[2],20.8 ± 6.2%
same,"k3 (biliary efflux), parametric map","single F0 patient, FIG. 13",3.53 mL·min^-1·100 g^-1
same,"k3 (biliary efflux), parametric map","single F1 patient, FIG. 14",3.67 mL·min^-1·100 g^-1
same,"k3 (biliary efflux), parametric map","single F2 patient, FIG. 15",2.23 mL·min^-1·100 g^-1
same,"k3 (biliary efflux), parametric map","single F3 patient, FIG. 16",1.64 mL·min^-1·100 g^-1
